Data as given in ChEMBL document CHEMBL1201862, “PubChem BioAssay data set” (2004).
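Cultured in 96-well plates, cells were exposed to test compound for 48 hours across five concentrations. GI50 marks 50% less growth.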 Activity calls are given as the source filed them. Rule as the data show it: active = GI50 up to about 1.1 µM and inactive = higher.

Tests used:
Test in all cases: DTP human tumour cell line panel, 48 h
HCT-15 = test system: HCT-15
HOP-62 = test system: HOP-62
SK-MEL-2 = test system: SK-MEL-2
OVCAR-8 = test system: OVCAR-8
HCC 2998 = test system: HCC 2998
SR = test system: SR
NCI-H226 = test system: NCI-H226
Malme-3M = test system: Malme-3M
K562 = test system: K562
LOX IMVI = test system: LOX IMVI
CAKI-1 = test system: CAKI-1
SN12C = test system: SN12C
SK-MEL-28 = test system: SK-MEL-28
HCT-116 = test system: HCT-116
TK-10 = test system: TK-10
SNB-75 = test system: SNB-75
RPMI-8226 = test system: RPMI-8226

Compound | GI50 (HCT-15) | GI50 (HOP-62) | GI50 (SK-MEL-2) | GI50 (OVCAR-8) | GI50 (HCC 2998) | GI50 (SR) | GI50 (NCI-H226) | GI50 (Malme-3M) | GI50 (K562) | GI50 (LOX IMVI) | GI50 (CAKI-1) | GI50 (SN12C) | GI50 (SK-MEL-28) | GI50 (HCT-116) | GI50 (TK-10) | GI50 (SNB-75) | GI50 (RPMI-8226)
COc1ccccc1-n1c(C)nc2ccccc2c1=O | > 100 µM | > 100 µM (inactive) | > 100 µM (inactive) | > 100 µM (inactive) | > 100 µM (inactive) | > 100 µM (inactive) | > 100 µM (inactive) | > 100 µM (inactive) | > 100 µM (inactive) | > 100 µM (inactive) | > 100 µM (inactive) | > 100 µM (inactive) | > 100 µM (inactive) | > 100 µM (inactive) | > 100 µM (inactive) | > 100 µM (inactive) | –
CC(=O)Oc1cc(OC(C)=O)c(OC(C)=O)c2c1CC1C(=O)C3(CCc4ccccc43)C(=O)C1C2 (centres undefined) | 18.1 µM | 21.1 µM (inactive) | – | 14.2 µM (inactive) | 6.7 µM (inactive) | – | – | 7.57 µM (inactive) | 9.2 µM (inactive) | 6.67 µM (inactive) | 20.2 µM (inactive) | 17.3 µM (inactive) | 18.2 µM (inactive) | – | 17.4 µM (inactive) | 0.912 µM (active) | 0.555 µM (active)
CC(C)(C)c1cc([Si](C)(C)C)c(C#N)c([Si](C)(C)C)c1 | > 100 µM | > 100 µM (inactive) | > 100 µM (inactive) | > 100 µM (inactive) | 90.6 µM (inactive) | 34.9 µM (inactive) | 87.9 µM (inactive) | > 100 µM (inactive) | > 100 µM (inactive) | 78.5 µM (inactive) | > 100 µM (inactive) | > 100 µM (inactive) | > 100 µM (inactive) | 54.8 µM (inactive) | > 100 µM (inactive) | 47.3 µM (inactive) | –
Cc1ccc(CC(C)N)cc1 (centres undefined) | > 100 µM | > 100 µM (inactive) | > 100 µM (inactive) | > 100 µM (inactive) | > 100 µM (inactive) | – | > 100 µM (inactive) | > 100 µM (inactive) | > 100 µM (inactive) | > 100 µM (inactive) | > 100 µM (inactive) | > 100 µM (inactive) | > 100 µM (inactive) | > 100 µM (inactive) | > 100 µM (inactive) | > 100 µM (inactive) | > 100 µM (inactive)
COc1cc([C@@H]2c3cc4c(cc3[C@@H](NC(=O)c3cccc(C#N)c3)C3COC(=O)[C@@H]32)OCO4)cc(OC)c1O (some centres undefined) | 3.81 µM | 0.172 µM (active) | 3.55 µM (inactive) | 1.19 µM (inactive) | 1.84 µM (inactive) | – | 0.0671 µM (active) | 0.65 µM (active) | 1.73 µM (inactive) | 0.398 µM (active) | 0.678 µM (active) | 0.229 µM (active) | 2.92 µM (inactive) | 1.1 µM (active) | 3.29 µM (inactive) | 0.433 µM (active) | 7.14 µM (inactive)
Cc1cc(O)nc(NNC(C#N)c2ccco2)n1 (centres undefined) | > 100 µM | > 100 µM (inactive) | > 100 µM (inactive) | > 100 µM (inactive) | – | > 100 µM (inactive) | > 100 µM (inactive) | > 100 µM (inactive) | > 100 µM (inactive) | > 100 µM (inactive) | > 100 µM (inactive) | > 100 µM (inactive) | > 100 µM (inactive) | > 100 µM (inactive) | > 100 µM (inactive) | 37.2 µM (inactive) | > 100 µM (inactive)
CN(C(=O)c1ccc([N+](=O)[O-])cc1)c1ccccc1 | > 100 µM | > 100 µM (inactive) | – | > 100 µM (inactive) | > 100 µM (inactive) | – | > 100 µM (inactive) | > 100 µM (inactive) | > 10 µM (inactive) | > 100 µM (inactive) | > 100 µM (inactive) | > 100 µM (inactive) | > 100 µM (inactive) | > 100 µM (inactive) | – | 87.9 µM (inactive) | > 100 µM (inactive)
CC(C)N(C(=O)C12CC3CC(CC(C3)C1)C2)C(C)C | > 50 µM | > 50 µM (inactive) | > 50 µM (inactive) | > 50 µM (inactive) | > 50 µM (inactive) | – | > 50 µM (inactive) | > 50 µM (inactive) | > 50 µM (inactive) | > 50 µM (inactive) | > 50 µM (inactive) | > 50 µM (inactive) | > 50 µM (inactive) | > 50 µM (inactive) | > 50 µM (inactive) | > 50 µM (inactive) | > 50 µM (inactive)
CC1(C)CC(/C=C2/OC(=O)c3ccccc32)=C(C#N)C(=O)O1 | > 100 µM | > 100 µM (inactive) | > 100 µM (inactive) | > 100 µM (inactive) | 0.294 µM (active) | > 100 µM (inactive) | > 100 µM (inactive) | > 100 µM (inactive) | > 100 µM (inactive) | > 100 µM (inactive) | > 100 µM (inactive) | > 100 µM (inactive) | > 100 µM (inactive) | > 100 µM (inactive) | – | > 100 µM (inactive) | > 100 µM (inactive)
